Results taken from US20190060340A1, “NOVEL AMINOGLYCOSIDES AND USES THEREOF IN THE TREATMENT OF GENETIC DISORDERS” (Technion Research & Development Foundation Limited, priority 2007, published 2019).
Converted amounts (≈) assume the structure as drawn. Like-named read-outs stand apart in the source and are kept apart here.

What was measured:
human fibroblast cells = conditions: cited from earlier work
[1] = available toxicity data on aminoglycosides; unit inferred; cited from earlier work
stop mutations = conditions: literature; cited from earlier work
[2] = test system: R3X nonsense mutation (a premature UGA C stop codon) of the PCDH15 gene; assay: In vitro suppression and translation, pDB650-R3X reporter plasmid in rabbit reticulocyte lysate coupled transcription/translation system; assay type: biochemical, human; conditions: for Conc. (concentration at which maximal suppression level was observed) / Supp. level (%), maximal in-vitro mutation suppression: R3X mutation; for Conc. (concentration at which maximal suppression level was observed): in vitro; for Supp. level (%), maximal in-vitro mutation suppression: 35-kDa product out of total protein; for Supp. level (%), maximal in-vitro mutation suppression / Trans. level (%): at Conc. of maximal suppression; for Trans. level (%): total protein relative to no compound
Method: Initially, Compounds 1-9 were tested for their ability to suppress this nonsense mutation in vitro, using a reporter construct carrying the R3X nonsense mutation (a premature UGA C stop codon) of the PCDH15 gene. Mutations in the PCDH15 gene which encodes protocardherin 15, cause type 1 Usher syndrome (USH1), which is characterized by profound prelingual hearing loss, vestibular areflexia, and prepubertal onset of retinitis pigmentosa (RP). Four different PCDH15 USH1-causing nonsense mutations, R3X, R245X, R643X, and R929X, have been reported in humans.
Suppression of nonsense mutations by Compounds 1-9 was tested in vitro using a reporter plasmid harboring the R3X mutation of the PCDH15 gene. To create this plasmid, the oligonucleotides 5′-[…]-3′ (SEQ ID NO: 1) and 5′-[…]-3′ (SEQ ID NO: 2) were annealed to each other and inserted into the BamHI and HindIII sites of plasmid pDB650 [6].
The resulting reporter plasmid pDB650-R3X contained a TGA C nonsense mutation between a 25-kDa polypeptide encoding open reading frame (ORF) and a 10-kDa polypeptide encoding ORF.
The plasmid was transcribed and translated in a rabbit reticulocyte lysate coupled transcription/translation system (Promega) in the presence of [^35S]-methionine, and the reaction products were separated by SDS-PAGE and quantified using Phosphorlmager analysis. The mutation suppression level was calculated as the relative proportion of the 35-kDa product out of total protein (the sum of 35-kDa and 25-kDa), and the translation level was calculated as the relative proportion of the total protein at each tested compound concentration out of the total protein without the presence of the tested compounds.
The tested concentrations of paromomycin were 0, 5, 10, 20, 30 and 40 μg/ml, tested concentrations of gentamicin were 0, 5, 10, 20, and 30 μg/ml, and the tested concentrations of Compounds 1-9 were in the range of 0-160 μg/ml.
Compound 37 was tested for its ability to suppress a nonsense mutation in-vitro, using a reporter construct carrying either R3X nonsense mutation (a premature UGA C stop codon) or R245X nonsense mutation (a premature UGA A stop codon) of the PCDH15 gene, using gentamicin, paromomycin and Compound 3 as standards and following the experimental procedures presented hereinabove.
For the rat-PGM-β-Gal in vitro readthrough system, the pDB series of reporter plasmids harbor the following elements under SP6 promoter control: an open reading frame (ORF) derived from the 5′ end of the rat PGM gene, which encodes a 25-kDa polypeptide; another small ORF, encoding the 10-kDa alpha complementation region of β-galactosidase, and terminated by tandem, in-frame stop codons (UAA UAG); located between the two ORFs is a DNA fragment derived from PCDH15 cDNA, including the tested stop mutation or the corresponding wild-type codon, and six upstream and downstream flanking codons (except for p.R3X constructs, in which there are only two upstream PCDH15-flanking codons). The fragments were created by annealing the following couples of complementary oligonucleotides:
The fragments were inserted into the BamHI and HindIII restriction sites of the pDB read-through construct. Reporter plasmids harboring each of the four nonsense mutations and the corresponding wt alleles were in vitro transcribed and translated using the TNT SP6 Coupled Reticulocyte lysate System (Promega) in the presence of [^35S]-methionine and increasing concentrations of aminoglycosides as described previously. […] The degree of suppression was calculated as the relative proportion of the 35-kDa product out of total reaction products (35-kDa and 25-kDa polypeptides). The results are averages of at least three independent experiments.

[3] = test system: Bacillus Subtilis ATCC 6633; assay: Antibacterial activity, MIC by double-microdilution method; assay type: cell-based; conditions: Bacillus subtilis
Method: (§1) In order to compare the observed aminoglycoside-induced stop codon read-through activity in mammalian cells to antibacterial activity thereof, Compounds 1-9 were further investigated as antibacterial agents against both Gram-negative (E. coli) and Gram-positive (Bacillus subtilis) bacteria, and the minimal inhibitory concentration (MIC) values were determined by using a microdilution assay with paromomycin and gentamicin as controls, and the results are presented in Table 18 hereinabove.
(§2) The bacterial strains used were Escherichia coli ATCC 25922, and Bacillus Subtilis ATCC 6633. […] All the experiments were performed in triplicates and analogous results were obtained in two to four different experiments.

[4] = test system: Escherichia coli ATCC 25922; assay: as above; assay type: cell-based; conditions: for MIC: Escherichia coli
Method: as §1, §2

[5] = test system: original p2Luc plasmid containing a TGA C nonsense mutation; assay: Dual luciferase in vitro transcription/translation assay; assay type: biochemical
Excerpt: (§3) DNA fragments derived from the subsequent genes, including the tested stop mutation or the corresponding wild-type codon, and four upstream and downstream flanking codons (except for p.R3X constructs, in which there are only two upstream PCDH15-flanking codons) were cloned into p2Luc plasmid between renilla and firefly luciferase genes as described previously. The formed plasmids, as well as the original p2Luc plasmid containing a TGA C nonsense mutation, were transcribed and translated in vitro and the stop codon suppression efficiency was calculated as described previously.
(§4) For the dual luciferase in vitro transcription/translation assay, DNA fragments derived from PCDH15, CFTR, Dystrophin and IDUA cDNAs, including the tested stop mutation or the corresponding wild-type codon, and four upstream and downstream flanking codons (except for p.R3X constructs, in which there are only two upstream PCDH15-flanking codons) were created by annealing the couples of complementary oligonucleotides presented above.
(§5) Fragments were inserted into the SalI and SacI restriction sites of the p2Luc plasmid between renilla and firefly luciferase genes. The afforded plasmids, as well as the original p2Luc plasmid containing a TGA C nonsense mutation, were transcribed and translated using the TNT Reticulocyte Lysate Quick Coupled Transcription/Translation System (Promega™). Each transcription/translation reaction (10 μl, total volume) contained 8 μl TNT T7 Quick Master Mix, 0.2 μl methionine (1 mM), 0.8 μl DNA template (2 μg/μl), 1 μl of either water (blank) or 1 μl solution of increasing concentrations of the tested aminoglycosides in water. Luciferase activity was determined following 90 minutes incubation at 30° C. using the Dual Luciferase Reporter Assay System (Promega™). The total luminescence produced by each one of the proteins was measured separately using the FLx800 multidetection plate reader (Bio-Tek) and the stop codon suppression efficiency was calculated as described previously. The results are averages of at least three independent experiments.

[6] = test system: R3X (PCDH15, Usher Syndrome); assay: as above; assay type: biochemical, human
Excerpt: as §3, §4, §5

[7] = ATCC6633, ATCC 6633, read-out: MIC B. Subtilis
[8] = ATCC25922, ATCC 25922, read-out: MIC E. coli

Structure (SMILES) | LD50 [1] | Conc. (concentration at which maximal suppression level was observed) [2] | Supp. level (%), maximal in-vitro mutation suppression [2] | Trans. level (%) [2] | MIC [3, 7] | MIC [4, 8] | other results
CN[C@@H]1[C@@H](O)[C@@H](O[C@@H]2[C@@H](O)[C@H](O[C@H]3O[C@H]([C@@H](C)O)[C@@H](O)[C@H](O)[C@H]3N)[C@@H](N)C[C@H]2N)OC[C@]1(C)O [Compound G-418, G-418] | – | – | – | – | – | – | LD50 against human fibroblast cells (human fibroblast cells; ref [49]): 0.04 mg/mL
NC[C@H]1O[C@H](O[C@H]2[C@H](O)[C@@H](O[C@H]3O[C@H](CO)[C@@H](O)[C@H](N)[C@H]3O)[C@H](N)C[C@@H]2N)[C@H](N)C[C@@H]1O [tobramycin] | 79 mg/kg | – | – | – | – | – | stop mutations suppression / read-through activity (stop mutations): do not have stop mutations suppression activity
NCC[C@H](O)C(=O)N[C@@H]1C[C@H](N)[C@@H](O[C@H]2O[C@H](CN)[C@@H](O)[C@H](O)[C@H]2O)[C@H](O)[C@H]1O[C@H]1O[C@H](CO)[C@@H](O)[C@H](N)[C@H]1O [amikacin] | 300 mg/kg | – | – | – | – | – | –
NC1C[C@@H](N)[C@@H](O)[C@@H](O[C@@H]2O[C@H](CO)[C@H](O)C2O)[C@@H]1O[C@H]1OC(CO)[C@@H](O)[C@H](O)[C@@H]1N (stereo partly drawn) [Compound 2, (3S,4R,5S,6S)-5-amino-6-((1R,2R,3R,4R)-4,6-diamino-2-((2S,4R,5R)-3,4-dihydroxy-5-(hydroxymethyl)-tetrahydrofuran-2-yloxy)-3-hydroxycyclohexyloxy)-2-(hydroxymethyl)-tetrahydro-2H-pyran-3,4-diol] | – | 80 µg/mL | 1.3 ± 0.1% | 100 ± 10% | 64 mg/L (≈ 141 µM) | 256 mg/L (≈ 562 µM) | –
NC[C@H]1O[C@@H](OC2C(O)[C@H](O[C@H]3OC(CO)[C@@H](O)C(O)C3N)C(N)C[C@H]2N)C(O)C1O (stereo partly shown) [Compound 5] | – | 80 µg/mL | 4.4 ± 2% | 75 ± 9% | 192 mg/L (≈ 422 µM) | > 512 mg/L | –
NC[C@H]1O[C@H](O[C@H]2[C@H](O)[C@@H](O)[C@H](N)C[C@@H]2N)[C@H](N)[C@@H](O)[C@@H]1O [neamine] | 125 mg/kg | – | – | – | – | – | –
NC1C(OCOC2C(N)[C@H](O[C@H]3C(N)C[C@H](N)C(O)C3O)OC(CO)[C@@H]2O)[C@H](O)C(CO)O[C@@H]1O[C@@H]1C(N)C[C@@H](N)C(O)C1O (stereo partly shown) [Compound 9] | – | 80 µg/mL | <1% | 22 ± 2% | 48 mg/L (≈ 72.9 µM) | 96 mg/L (≈ 146 µM) | –
NC1C(N)[C@H](O)C(CO)O[C@@H]1O[C@@H]1C(N)C[C@@H](N)C(O)C1O (stereo partly shown) [Compound 8] | – | 80 µg/mL | 2.0 ± 2% | 71 ± 7% | 48 mg/L (≈ 149 µM) | 192 mg/L (≈ 596 µM) | fold lower antimicrobial activity as compared to paromomycin ([4]; from Table 18, E. coli and B. subtilis): 6-16 fold
NC1C[C@@H](N)[C@@H](O[C@@H]2O[C@H](CO)[C@H](O)C2O)[C@@H](O)[C@@H]1O[C@H]1OC(CO)[C@@H](O)[C@H](O)[C@@H]1N (stereo partly drawn) [Compound 4, (3S,4R,5S,6S)-5-amino-6-((1R,2S,3R,4R)-4,6-diamino-3-((2R,4R,5R)-3,4-dihydroxy-5-(hydroxymethyl)-tetrahydrofuran-2-yloxy)-2-hydroxycyclohexyloxy)-2-(hydroxymethyl)-tetrahydro-2H-pyran-3,4-diol] | – | 80 µg/mL | 1.5 ± 0.1% | 74 ± 7% | 96 mg/L (≈ 211 µM) | 256 mg/L (≈ 562 µM) | –
NC[C@H]1O[C@H](O[C@H]2[C@H](O)[C@@H](O[C@H]3O[C@H](CO)[C@@H](O)[C@H](N)[C@H]3O)[C@H](N)C[C@@H]2N)[C@H](N)[C@@H](O)[C@@H]1O [kanamycin B] | 132 mg/kg | – | – | – | – | – | –
NCCC(O)C(=O)NC1CC(N)C(OC2OC(CN)C(O)C(O)C2N)C(O)C1O (stereo not shown) [N1-AHB-neamine] | 260 mg/kg | – | – | – | – | – | –
NC1CC(N)[C@@H](O[C@H]2OC(CO)[C@@H](O)C(O)C2N)C(O)C1O (stereo partly shown) [Compound 1, Paromamine] | – | 80 µg/mL | 6.2% | 74 ± 15% | – | – | Supp. level (%), maximal in-vitro mutation suppression ([2]; listed as Paromamine): 6.2 ± 0.2%; MIC ([3]; ATCC6633, read-out: MIC B. Subtilis): 128 mg/L (≈ 396 µM); MIC ([4]; ATCC25922, read-out: MIC E. coli): 512 mg/L (≈ 1580 µM); Conc. (μM) at which maximum suppression level was achieved ([5]; dual luciferase in vitro system, all constructs of Table 21): 490 µM; Maximum in vitro suppression (%) UGAC ([5]; p2luc): 1.1 ± 0.1%; Maximum in vitro suppression (%) R3X [6]: 0.6 ± 0.1%
N[C@@H]1[C@@H](O)[C@@H](O[C@@H]2[C@@H](O)[C@H](O[C@H]3O[C@H](CO)[C@@H](O)[C@H](O)[C@H]3N)[C@@H](N)C[C@H]2N)O[C@H](CO)[C@H]1O [kanamycin C] | 225 mg/kg | – | – | – | – | – | –
NC[C@H]1O[C@@H](OC2C(N)[C@@H](O[C@@H]3C(N)C[C@@H](N)C(O)C3O)OC(CO)[C@H]2O)C(O)C1O (stereo partly shown) [Compound 7] | – | 80 µg/mL | 2.9 ± 2% | 98 ± 10% | 48 mg/L (≈ 106 µM) | 192 mg/L (≈ 422 µM) | –
NC[C@H]1O[C@H](O[C@H]2[C@H](O)[C@@H](O[C@H]3O[C@H](CO)[C@@H](O)[C@H](N)[C@H]3O)[C@H](N)C[C@@H]2N)[C@H](O)[C@@H](O)[C@@H]1O [kanamycin] | – | – | – | – | – | – | LD50 against human fibroblast cells (human fibroblast cells): 2.5 to 5.0 mg/mL
